{"source": "patent EP4599826A1", "about": "“LEUCINE FOR USE IN THE TREATMENT OF CANCER” (priority 2024, dated 2025)", "key": {"4T1-luc cell transplants": {"system": "4T1-luc cell transplants", "test": "syngeneic orthotopic 4T1 TNBC mouse model: tumor growth and survival", "format": "in vivo, female BALB/c mice", "procedure": "(§1) As for experiments employing the use of chemotherapy, carboplatin (Sindan, 10mg/ml), oxaliplatin (Mylan, 5mg/ml in infusion solution) and paclitaxel (Accord, 6mg/ml in 527mg/ml polyoxyethylated castor oil and 391 mg/ml ethanol) were provided by Istituto Nazionale dei Tumori, Milano.\n(§2) The impact of oral Leucine supplementation, as given at a daily dose of 500 mg/Kg Leucine by oral gavage, was investigated on in vivo tumor growth and mouse survival in orthotopic (4T1 and E0771 TNBC cells injected in the mammary fat pad of female BALB/c mice and female C57BL6/J mice, respectively) or subcutaneous (CT26: murine colorectal carcinoma - CRC, or LLC: murine […] lung carcinoma cells, injected in the subcutaneous tissue of female BALB/c mice and female C57BL6/J mice, respectively) syngeneic tumor models."}, "[1]": {"system": "LLC lung cell transplants", "test": "syngeneic subcutaneous LLC lung cancer mouse model: tumor growth and survival", "format": "in vivo, female C57BL6/J mice", "procedure": "as §1, §2"}, "E0771 cell transplants": {"system": "E0771 cell transplants", "test": "syngeneic orthotopic E0771 TNBC mouse model: tumor growth and survival", "format": "in vivo, female C57BL6/J mice", "procedure": "as §1, §2"}, "[2]": {"system": "CT26 CRC cell transplants", "test": "syngeneic subcutaneous CT26 colorectal cancer mouse model: tumor growth and survival", "format": "in vivo, female BALB/c mice", "procedure": "as §1, §2"}, "[3]": {"system": "syngeneic mouse tumor models", "conditions": "Leucine + anti-PD-L1 immunotherapy, tumor model not stated"}, "[4]": {"conditions": "carboplatin alone, 50 mg/kg once a week i.p."}, "[5]": {"conditions": "Leucine 500 mg/kg daily oral gavage + anti-PD-L1 MoAb 100 ug per mouse i.p. every other day, 4 cycles"}, "[6]": {"conditions": "Leucine 500 mg/kg daily oral gavage + cyclic fasting (48-hour water-only fasting, repeated every 7 days)"}, "[7]": {"conditions": "Leucine 500 mg/kg daily oral gavage + paclitaxel 30 mg/kg once a week i.p., most relevant effects in this model"}, "[8]": {"conditions": "Leucine 500 mg/kg once a day by oral gavage, alone, standard diet"}, "[9]": {"conditions": "Leucine 500 mg/kg daily oral gavage + oxaliplatin 5 mg/kg once a week i.p., effect less evident, yet still statistically significant"}, "[10]": {"conditions": "Leucine 500 mg/kg daily + cyclic fasting + carboplatin 50 mg/kg weekly + anti-PD-L1 MoAb, compared to the fasting-Leucine doublet"}, "[11]": {"conditions": "Leucine 500 mg/kg daily oral gavage + carboplatin 50 mg/kg once a week i.p., effect less evident, yet still statistically significant"}, "[12]": {"conditions": "Leu + fasting + anti-PD-L1, compared to anti-PDL1 MoAb + fasting"}, "[13]": {"conditions": "paclitaxel alone, 30 mg/kg once a week i.p."}, "[14]": {"conditions": "oxaliplatin alone, 5 mg/kg once a week i.p."}}}
{"smiles": "N.N.O=C([O-])C1(C(=O)[O-])CCC1.[Pt+2]", "note": "[carboplatin, reference compound]", "values": [{"measurement": "animal survival", "setting": "4T1-luc cell transplants; [4]", "result": "statistically significant prolongation of animal survival"}, {"measurement": "in vivo tumor growth", "setting": "4T1-luc cell transplants; [4]", "result": "slowed down in vivo tumor growth"}, {"measurement": "animal survival", "setting": "[1]; [4]", "result": "statistically significant prolongation of animal survival"}, {"measurement": "in vivo tumor growth", "setting": "[1]; [4]", "result": "slowed down in vivo tumor growth"}]}
{"smiles": "CC(C)C[C@H](N)C(=O)O", "note": "[Leucine]", "values": [{"measurement": "animal survival", "setting": "E0771 cell transplants; Leucine 500 mg/kg daily + cyclic fasting + paclitaxel 30 mg/kg weekly + anti-PD-L1 MoAb, compared to the fasting-Leucine doublet", "result": "meaningful prolongation of animal survival"}, {"measurement": "animal survival", "setting": "E0771 cell transplants; [5]", "result": "prolonged animal survival"}, {"measurement": "in vivo tumor growth", "setting": "E0771 cell transplants; [5]", "result": "cooperatively slowed down in vivo tumor growth"}, {"measurement": "animal survival", "setting": "E0771 cell transplants; [6]", "result": "significant prolongation of animal survival"}, {"measurement": "in vivo tumor growth", "setting": "E0771 cell transplants; [6]", "result": "cooperative reduction of in vivo tumor growth"}, {"measurement": "animal survival", "setting": "E0771 cell transplants; [7]", "result": "prolonging animal survival"}, {"measurement": "in vivo tumor growth", "setting": "E0771 cell transplants; [7]", "result": "cooperated with chemotherapy in slowing down in vivo tumor growth"}, {"measurement": "animal survival", "setting": "E0771 cell transplants; [8]", "result": "prolonged animal survival"}, {"measurement": "primary tumor growth", "setting": "E0771 cell transplants; [8]", "result": "slowed down primary tumor growth"}, {"measurement": "primary tumor", "setting": "E0771 cell transplants; quadruple treatment: Leucine + cyclic fasting + paclitaxel + anti-PD-L1 MoAb", "result": "complete regression of the primary tumor in some mice"}, {"measurement": "animal survival", "setting": "[2]; Leucine 500 mg/kg daily + cyclic fasting + oxaliplatin 5 mg/kg weekly + anti-PD-L1 MoAb, compared to the fasting-Leucine doublet", "result": "meaningful prolongation of animal survival"}, {"measurement": "animal survival", "setting": "[2]; [5]", "result": "prolonged animal survival"}, {"measurement": "in vivo tumor growth", "setting": "[2]; [5]", "result": "cooperatively slowed down in vivo tumor growth"}, {"measurement": "animal survival", "setting": "[2]; [6]", "result": "significant prolongation of animal survival"}, {"measurement": "in vivo tumor growth", "setting": "[2]; [6]", "result": "cooperative reduction of in vivo tumor growth"}, {"measurement": "animal survival", "setting": "[2]; [9]", "result": "prolonging animal survival"}, {"measurement": "in vivo tumor growth", "setting": "[2]; [9]", "result": "cooperated with chemotherapy in slowing down in vivo tumor growth"}, {"measurement": "animal survival", "setting": "[2]; [8]", "result": "prolonged animal survival"}, {"measurement": "primary tumor growth", "setting": "[2]; [8]", "result": "slowed down primary tumor growth"}, {"measurement": "primary tumor", "setting": "[2]; quadruple treatment: Leucine + cyclic fasting + oxaliplatin + anti-PD-L1 MoAb", "result": "complete regression of the primary tumor in some mice"}, {"measurement": "primary tumor mass", "setting": "[3]; observed in some animals", "result": "completed disappearance of the primary tumor mass"}, {"measurement": "survival of some mice", "setting": "[3]; some mice", "result": "long-term survival"}, {"measurement": "animal survival", "setting": "4T1-luc cell transplants; [10]", "result": "meaningful prolongation of animal survival"}, {"measurement": "animal survival", "setting": "4T1-luc cell transplants; [5]", "result": "prolonged animal survival"}, {"measurement": "in vivo tumor growth", "setting": "4T1-luc cell transplants; [5]", "result": "cooperatively slowed down in vivo tumor growth"}, {"measurement": "animal survival", "setting": "4T1-luc cell transplants; [11]", "result": "prolonging animal survival"}, {"measurement": "in vivo tumor growth", "setting": "4T1-luc cell transplants; [11]", "result": "cooperated with chemotherapy in slowing down in vivo tumor growth"}, {"measurement": "animal survival", "setting": "4T1-luc cell transplants; [6]", "result": "significant prolongation of animal survival"}, {"measurement": "in vivo tumor growth", "setting": "4T1-luc cell transplants; [6]", "result": "cooperative reduction of in vivo tumor growth"}, {"measurement": "animal survival", "setting": "4T1-luc cell transplants; [8]", "result": "prolonged animal survival"}, {"measurement": "primary tumor growth", "setting": "4T1-luc cell transplants; [8]", "result": "slowed down primary tumor growth"}, {"measurement": "animal survival", "setting": "[1]; [12]", "result": "prolonged animal survival"}, {"measurement": "tumor growth", "setting": "[1]; [12]", "result": "significantly slowed down tumor growth"}, {"measurement": "animal survival", "setting": "[1]; [10]", "result": "meaningful prolongation of animal survival"}, {"measurement": "animal survival", "setting": "[1]; [11]", "result": "prolonging animal survival"}, {"measurement": "in vivo tumor growth", "setting": "[1]; [11]", "result": "cooperated with chemotherapy in slowing down in vivo tumor growth"}, {"measurement": "animal survival", "setting": "[1]; [6]", "result": "significant prolongation of animal survival"}, {"measurement": "in vivo tumor growth", "setting": "[1]; [6]", "result": "cooperative reduction of in vivo tumor growth"}, {"measurement": "animal survival", "setting": "[1]; [8]", "result": "prolonged animal survival"}, {"measurement": "primary tumor growth", "setting": "[1]; [8]", "result": "slowed down primary tumor growth"}]}
{"smiles": "CC(=O)O[C@H]1C(=O)[C@@]2(C)[C@H]([C@H](OC(=O)c3ccccc3)[C@]3(O)C[C@H](OC(=O)[C@H](O)[C@@H](NC(=O)c4ccccc4)c4ccccc4)C(C)=C1C3(C)C)[C@]1(OC(C)=O)CO[C@@H]1C[C@@H]2O", "note": "[paclitaxel, reference compound]", "values": [{"measurement": "animal survival", "setting": "E0771 cell transplants; [13]", "result": "statistically significant prolongation of animal survival"}, {"measurement": "in vivo tumor growth", "setting": "E0771 cell transplants; [13]", "result": "slowed down in vivo tumor growth"}]}
{"smiles": "O=C1[O][Pt]2([NH][C@@H]3CCCC[C@H]3[NH]2)[O]C1=O", "note": "[oxaliplatin, reference compound]", "values": [{"measurement": "animal survival", "setting": "[2]; [14]", "result": "statistically significant prolongation of animal survival"}, {"measurement": "in vivo tumor growth", "setting": "[2]; [14]", "result": "slowed down in vivo tumor growth"}]}
